Here are results for 13 compounds from patent US11999695B2, “YAP1 inhibitors that target the interaction of YAP1 with OCT4” (H. LEE MOFFITT CANCER CENTER AND RESEARCH INSTITUTE, INC., priority 2016, dated 2024).

As usually defined, the IC50 is the concentration that inhibits the measured activity by half. Read a low IC50 as greater potency.

The test system of assay [1] is cisplatin-insensitive SP cells from H1650 cells. Nature of the assay: Sphere formation of cisplatin-insensitive SP cells (FIG. 30). Type of assay: cell-based. The settings on record: YAP1 inhibitors 2 uM, cisplatin 5 uM. On the procedure: One feature of cancer stem cells is their drug resistance. Sphere formation of SP cells from H1650 cells was conduced in the presence of cisplatin; stem-like SP cells can self-renew and form spheres in stem-cell selective media and on low-adherence plates, even in the presence of 5 uM cisplatin (top right image).

Assay [2] has as its system stem-like side-population (SP) cells. Nature of the assay: Sphere-formation assay, self-renewal of side-population cells (FIG. 18-21). Type of assay: cell-based. The note with it: SP cells in low-adherence plates, stem-cell selective media, 10 days. On the procedure: FIG. 18 is a group of cell micrographs showing inhibition of self-renewals by selected compounds in a sphere formation assay. Self-renewal of stem-like side-population (SP) cells was measured by a sphere-formation assay. Essentially, side-population cells were sorted by flow cytometry based on Hoechst 33342 dye exclusion as described in our publications. Isolated SP cells were grown in low-adherence plates in stem-cell selective media for 10 days (Singh and Chellappan, 2012, Bora-Singhal et al., 2015 etc). Self-renewal ability of the stem-like cells can be assessed by the formation of spheres under these conditions; non-stem cells cannot self-renew and form spheres.
The assay is conducted for 10 days, and the number of spheres larger than 50 μm in diameter is counted.

The target in the next assay is T1, binding of Oct4 to YAP1 (Homo sapiens, UniProt P46937).
T1 construct: Lysates were prepared from the cells, and immunoprecipitated with an antibody to OCt4; endogenous in cells; host or cells: A549 and H1650 cells
Description: Immunoprecipitation-Western blot of Oct4-YAP1 binding (FIG. 15). The settings on record: 5 μM, 72 hours. Type of assay: cell-based. On the procedure: FIG. 15 is a group of gel images showing peptidomimetic compounds SR2-022, SR2-030, and SR2-033 reduced YAP1-Oct4 interaction as detected by IP-WB. An immunoprecipitation-Western blot experiment was conducted to assess if the indicated compounds could disrupt the binding of Oct4 to YAP1. IP-western blots were conducted using the protocols described in Bora-Singhal et al, 2015. Essentially, cells were treated with 5 μM of the indicated compounds for 72 hours. Lysates were prepared from the cells, and immunoprecipitated with an antibody to OCt4, or a control IgG. Lysates as well as the immunoprecipitates were resoled by a polyacrylamide gel and a western blot was conducted using an antibody to YAP1.
On the technique in general: A western blot detects proteins with antibodies after separation by electrophoresis.

In a further assay the target is YAP1:OCT4 (Homo sapiens, UniProt P46937). Description: In vitro YAP1:OCT4 ELISA binding assay. The note with it: YAP1:OCT4 disruption. On the procedure: Activities of Compounds in the In Vitro YAP1:OCT4 ELISA Binding Assay
Selected compounds were assayed in a YAP1:OCT4 binding assay.
(ELISA stands for enzyme-linked immunosorbent assay.)

For assay [3], the system named is A549 lung adenocarcinoma cells. Description: Cytokine array on A549 cells (FIG. 39). It is filed as cell-based. An excerpt: FIG. 39 is a graph showing results from a cytokine array performed on A549 cells treated with SR2-033.
Assay [4] deals with primary cancer associated fibroblasts. Nature of the assay: Cytokine array (FIG. 40). It is filed as cell-based.
Assay [5] relates to Sox2. Description: Sox2 protein expression, gel images (FIG. 16). It is filed as cell-based. The settings on record: adenocarcinoma cells. An excerpt: FIG. 16 is a group of gel images showing Sox2 protein expression was reduced by SR-2033 in adenocarcinoma cells.
In assay [6] the test system is Sox2. Nature of the assay: Western blot of Sox2 expression (FIG. 17). Type of assay: cell-based. The settings on record: H1650 and A549 cells; 10 uM; 72 hours. As for the experimental part: (§1) FIG. 17 is a group of gel images showing compounds SR2-046, SR2-051, and SR2-052 reduce Sox2, c-Myc expression in H165 and A549 cells. Cells were treated for 72 hours with the indicated compounds. A western blot showing the reduction of Sox2 expression in H1650 cells and in A549 cells after treatment with 10 uM of the drugs for 72 hours. There was a reduction in the levels of C-myc and phoshodiesterate kinase 2 as well. Western blotting was done using our standard protocols, as published in Bora-Singhal et al., 2015.

For assay [7], the system named is phoshodiesterate kinase 2. Nature of the assay: Western blot of phoshodiesterate kinase 2 levels (FIG. 17). It is filed as cell-based. The settings on record: 10 uM; 72 hours. On the procedure: as §1
In the next assay the test system is c-Myc. Nature of the assay: Western blot of c-Myc expression (FIG. 17). It is filed as cell-based. The settings on record: H1650 and A549 cells; 10 uM; 72 hours. As for the experimental part:
as §1

The subject of assay [8] is methotrexate insensitive H146 small-cell lung carcinoma cells. Nature of the assay: Sphere formation of methotrexate-insensitive cells (FIG. 31). The note with it: YAP1 inhibitors 2 uM, methotrexate 2.5 uM. It is filed as cell-based. On the procedure: A similar experiment, where sphere formation of small-cell lung cancer cells, which are insensitive to methotrexate, was inhibited by YAP1 inhibitors. Sphere formation of SP cells from H146 small-cell lung carcinoma cells was conduced in the presence of 2.5 uM methotrexate; stem-like cells can self-renew and form spheres in stem-cell selective media and on low-adherence plates, even in the presence of 2.5 uM methotrexate.

T1 sequence (P46937 whole entry): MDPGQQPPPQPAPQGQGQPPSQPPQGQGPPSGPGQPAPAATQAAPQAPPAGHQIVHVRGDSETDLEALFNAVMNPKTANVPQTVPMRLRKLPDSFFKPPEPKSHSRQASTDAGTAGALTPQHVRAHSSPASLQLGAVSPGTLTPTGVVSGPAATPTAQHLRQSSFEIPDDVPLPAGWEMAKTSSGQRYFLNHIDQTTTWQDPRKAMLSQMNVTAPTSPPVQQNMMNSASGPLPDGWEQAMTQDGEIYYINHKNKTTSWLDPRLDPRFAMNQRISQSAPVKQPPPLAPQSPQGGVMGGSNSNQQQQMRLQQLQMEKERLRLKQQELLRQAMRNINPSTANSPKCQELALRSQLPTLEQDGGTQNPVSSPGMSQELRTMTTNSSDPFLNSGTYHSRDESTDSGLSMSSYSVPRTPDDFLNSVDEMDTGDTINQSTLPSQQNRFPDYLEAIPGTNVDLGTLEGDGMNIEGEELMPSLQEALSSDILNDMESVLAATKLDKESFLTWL
YAP1:OCT4, sequence (P46937 whole entry): as above

`N.N.[Cl][Pt][Cl]` [Cisplatin]: the “self-renewal (sphere formation) of dissociated cisplatin-insensitive spheres” value in [1] is “allowed self-renewal and formation of colonies”. Also, the number of spheres entry in [2] was “no effect”.
On to `O=C(CC1CCN(C(=O)CCc2ccccc2)CC1)N[C@@H](Cc1ccc(OCc2ccccc2)cc1)C(=O)O` [SR2-022, (S)-3-(4-(Benzyloxy)phenyl)-2-(2-(1-(3-phenylpropanoyl)piperidin-4-yl)acetamido)propan-oic acid], for which the entries for the “YAP1-Oct4 interaction detected by IP-WB” value at binding of Oct4 to YAP1 (A549 cells) and on binding of Oct4 to YAP1 (H1650 cells) were “completely abolished” and “significantly reduced”, respectively. For the same compound, the IC50 on YAP1:OCT4 was under 10 µM.
Consider `COC(=O)[C@H](Cc1ccc(OCc2ccccc2)cc1)NC(=O)CC1CCN(C(=O)CCc2ccc(Cl)c(Cl)c2)CC1` [SR2-030, Methyl (S)-3-(4-(benzyloxy)phenyl)-2-(2-(1-(3-(3,4-dichlorophenyl)propanoyl)piperidin-4-yl)acetamido)propanoate], for which the figures for the “YAP1-Oct4 interaction detected by IP-WB” value at binding of Oct4 to YAP1 (A549 cells) and on binding of Oct4 to YAP1 (H1650 cells) were “completely abolished” and “significantly reduced”, respectively. The IC50 at YAP1:OCT4 is under 10 µM.
On to `COC(=O)[C@H](Cc1ccc(OCc2ccccc2)cc1)NC(=O)CC1CCN(C(=O)CCc2ccc(C#N)cc2)CC1` [SR2-033, Methyl (S)-3-(4-(benzyloxy)phenyl)-2-(2-(1-(3-(4-cyanophenyl)propanoyl)piperidin-4-yl)acetamido)propanoate], for which the “levels of secreted cytokines (cytokine array)” value in assay [3] and in assay [4] was “altered” in each case. Besides, the “YAP1-Oct4 interaction detected by IP-WB” value at binding of Oct4 to YAP1 (A549 cells) is listed as “completely abolished”; at binding of Oct4 to YAP1 (H1650 cells), “significantly reduced”. On YAP1:OCT4, the IC50 is under 10 µM. In the assay on Sox2 [5], the Sox2 protein expression result was “reduced”.
As for `COC(=O)[C@H](Cc1ccc(OCc2ccccc2)cc1)NC(=O)CC1CCN(C(=O)CCCc2ccccc2)CC1` [SR2-046, Methyl (S)-3-(4-(benzyloxy)phenyl)-2-(2-(1-(4-phenylbutanoyl)piperidin-4-yl)acetamido)-propanoate], the IC50 at YAP1:OCT4 was under 10 µM. Also, the “Sox2 expression (western blot)” value in the assay with Sox2 [6] was “reduce”. Further, the “levels of phoshodiesterate kinase 2 (western blot)” value (“levels … (western blot)” below) in assay [7] was “reduction”. In addition, the “c-Myc expression (western blot)” value in the assay with c-Myc is on record as “reduce”.
On to `COC(=O)[C@H](Cc1ccc(OCc2ccccc2)cc1)NC(=O)CC1CCN(C(=O)c2ccc(NC(=O)OC(C)(C)C)cc2)CC1` [SR2-051, Methyl (S)-3-(4-(benzyloxy)phenyl)-2-(2-(1-(4-((tert-butoxycarbonyl)amino)benzoyl)piperidin-4-yl)acetamido)propanoate], for which the IC50 on YAP1:OCT4 is under 10 µM. In addition, the “Sox2 expression (western blot)” value in the assay with Sox2 [6] is “reduce”. Further, in [7], the “levels … (western blot)” value was “reduction”. The “c-Myc expression (western blot)” value in the assay with c-Myc is recorded as “reduce”.
`COC(=O)[C@H](Cc1ccc(OCc2ccccc2)cc1)NC(=O)CC1CCN(C(=O)Cc2ccc(NC(=O)OC(C)(C)C)cc2)CC1` [SR2-052, Methyl (S)-3-(4-(benzyloxy)phenyl)-2-(2-(1-(2-(4-((tert-butoxycarbonyl)amino)phenyl)acetyl)piperidin-4-yl)acetamido)propanoate]: at YAP1:OCT4, the IC50 is under 10 µM. Also, the “Sox2 expression (western blot)” value in the assay on Sox2 [6] was “reduce”. Besides, the “levels … (western blot)” value in assay [7] is “reduction”. In addition, the “c-Myc expression (western blot)” value with c-Myc is recorded as “reduce”.
`O=C(CC1CCN(C(=O)CCc2ccc(Cl)c(Cl)c2)CC1)N[C@@H](Cc1ccc(OCc2ccccc2)cc1)C(=O)O` [SR2-113, (S)-3-(4-(Benzyloxy)phenyl)-2-(2-(1-(3-(3,4-dichlorophenyl)propanoyl)piperidin-4-yl)acetamido)propanoic acid] yielded an IC50 on YAP1:OCT4 of under 10 µM.
Same read-out and setting: for `N#Cc1ccc(CCC(=O)N2CCC(CC(=O)N[C@@H](Cc3ccc(OCc4ccccc4)cc3)C(=O)O)CC2)cc1` [SR2-114, (S)-3-(4-(Benzyloxy)phenyl)-2-(2-(1-(3-(4-cyanophenyl)propanoyl)piperidin-4-yl)acetamido)propanoic acid] the value was under 10 µM; for `O=C(CC1CCN(C(=O)CCc2cccc(F)c2)CC1)N[C@@H](Cc1ccc(OCc2ccccc2)cc1)C(=O)O` [SR2-117, (S)-3-(4-(Benzyloxy)phenyl)-2-(2-(1-(3-(3-fluorophenyl)propanoyl)piperidin-4-yl)acetamido)propanoic acid], under 10 µM; for `O=C(CC1CCN(C(=O)CCc2ccc(F)cc2)CC1)N[C@@H](Cc1ccc(OCc2ccccc2)cc1)C(=O)O` [SR2-120, (S)-3-(4-(Benzyloxy)phenyl)-2-(2-(1-(3-(4-fluorophenyl)propanoyl)piperidin-4-yl)acetamido)propanoic acid], under 10 µM.
On the same count and under the same terms, for `CCOc1ccc(CCC(=O)N2CCC(CC(=O)N[C@@H](Cc3ccc(OCc4ccccc4)cc3)C(=O)O)CC2)cc1` [SR2-122, (S)-3-(4-(Benzyloxy)phenyl)-2-(2-(1-(3-(4-ethoxyphenyl)propanoyl)piperidin-4-yl)acetamido)propanoic acid] the value was under 10 µM.
Consider `CN(Cc1cnc2nc(N)nc(N)c2n1)c1ccc(C(=O)N[C@@H](CCC(=O)O)C(=O)O)cc1` [methotrexate], for which the “self-renewal (sphere formation) of dissociated methotrexate-insensitive spheres” value in assay [8] is “allowed self-renewal and formation of colonies”.
